Measured values taken from ChEMBL document CHEMBL1145498, “A systematic interaction map of validated kinase inhibitors with Ser/Thr kinases” (Proc Natl Acad Sci U S A, 2007).

What was measured:
[1] = biological target: Calcium/calmodulin-dependent protein kinase type 1D (Homo sapiens) (UniProt Q8IU85)
[2] = biological target: T1, Calcium/calmodulin-dependent protein kinase type IV (Homo sapiens) (UniProt Q16566)
T1 sequence (whole entry): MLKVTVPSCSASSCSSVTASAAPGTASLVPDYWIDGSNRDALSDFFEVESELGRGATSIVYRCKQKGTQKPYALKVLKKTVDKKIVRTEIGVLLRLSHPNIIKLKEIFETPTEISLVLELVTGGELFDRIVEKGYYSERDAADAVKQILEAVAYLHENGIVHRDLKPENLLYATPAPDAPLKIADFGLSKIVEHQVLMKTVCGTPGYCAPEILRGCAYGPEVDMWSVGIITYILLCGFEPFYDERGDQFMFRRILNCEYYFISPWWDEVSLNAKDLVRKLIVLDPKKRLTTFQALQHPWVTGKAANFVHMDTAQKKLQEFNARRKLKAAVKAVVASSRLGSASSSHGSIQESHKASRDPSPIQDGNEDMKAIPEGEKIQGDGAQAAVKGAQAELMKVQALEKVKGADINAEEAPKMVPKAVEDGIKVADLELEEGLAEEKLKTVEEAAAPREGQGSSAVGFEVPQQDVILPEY

[3] = biological target: Glycogen synthase kinase-3 beta (Homo sapiens, UniProt P49841)
Sequence of Glycogen synthase kinase-3 beta (P49841 whole entry, looked up): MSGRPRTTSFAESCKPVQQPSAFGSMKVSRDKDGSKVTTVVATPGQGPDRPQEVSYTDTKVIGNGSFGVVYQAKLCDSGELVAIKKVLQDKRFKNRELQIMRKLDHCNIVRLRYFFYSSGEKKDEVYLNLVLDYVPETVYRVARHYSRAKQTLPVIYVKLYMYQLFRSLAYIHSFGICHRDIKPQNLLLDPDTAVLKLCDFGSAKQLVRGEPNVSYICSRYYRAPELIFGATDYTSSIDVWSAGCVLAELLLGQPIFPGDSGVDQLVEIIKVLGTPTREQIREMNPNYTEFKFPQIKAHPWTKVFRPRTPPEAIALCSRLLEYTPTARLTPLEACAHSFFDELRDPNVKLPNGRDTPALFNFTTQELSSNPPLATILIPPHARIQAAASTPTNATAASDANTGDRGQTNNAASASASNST

[4] = biological target: T2, Mitogen-activated protein kinase kinase kinase 5 (Homo sapiens) (UniProt Q99683)
T2 sequence (whole entry): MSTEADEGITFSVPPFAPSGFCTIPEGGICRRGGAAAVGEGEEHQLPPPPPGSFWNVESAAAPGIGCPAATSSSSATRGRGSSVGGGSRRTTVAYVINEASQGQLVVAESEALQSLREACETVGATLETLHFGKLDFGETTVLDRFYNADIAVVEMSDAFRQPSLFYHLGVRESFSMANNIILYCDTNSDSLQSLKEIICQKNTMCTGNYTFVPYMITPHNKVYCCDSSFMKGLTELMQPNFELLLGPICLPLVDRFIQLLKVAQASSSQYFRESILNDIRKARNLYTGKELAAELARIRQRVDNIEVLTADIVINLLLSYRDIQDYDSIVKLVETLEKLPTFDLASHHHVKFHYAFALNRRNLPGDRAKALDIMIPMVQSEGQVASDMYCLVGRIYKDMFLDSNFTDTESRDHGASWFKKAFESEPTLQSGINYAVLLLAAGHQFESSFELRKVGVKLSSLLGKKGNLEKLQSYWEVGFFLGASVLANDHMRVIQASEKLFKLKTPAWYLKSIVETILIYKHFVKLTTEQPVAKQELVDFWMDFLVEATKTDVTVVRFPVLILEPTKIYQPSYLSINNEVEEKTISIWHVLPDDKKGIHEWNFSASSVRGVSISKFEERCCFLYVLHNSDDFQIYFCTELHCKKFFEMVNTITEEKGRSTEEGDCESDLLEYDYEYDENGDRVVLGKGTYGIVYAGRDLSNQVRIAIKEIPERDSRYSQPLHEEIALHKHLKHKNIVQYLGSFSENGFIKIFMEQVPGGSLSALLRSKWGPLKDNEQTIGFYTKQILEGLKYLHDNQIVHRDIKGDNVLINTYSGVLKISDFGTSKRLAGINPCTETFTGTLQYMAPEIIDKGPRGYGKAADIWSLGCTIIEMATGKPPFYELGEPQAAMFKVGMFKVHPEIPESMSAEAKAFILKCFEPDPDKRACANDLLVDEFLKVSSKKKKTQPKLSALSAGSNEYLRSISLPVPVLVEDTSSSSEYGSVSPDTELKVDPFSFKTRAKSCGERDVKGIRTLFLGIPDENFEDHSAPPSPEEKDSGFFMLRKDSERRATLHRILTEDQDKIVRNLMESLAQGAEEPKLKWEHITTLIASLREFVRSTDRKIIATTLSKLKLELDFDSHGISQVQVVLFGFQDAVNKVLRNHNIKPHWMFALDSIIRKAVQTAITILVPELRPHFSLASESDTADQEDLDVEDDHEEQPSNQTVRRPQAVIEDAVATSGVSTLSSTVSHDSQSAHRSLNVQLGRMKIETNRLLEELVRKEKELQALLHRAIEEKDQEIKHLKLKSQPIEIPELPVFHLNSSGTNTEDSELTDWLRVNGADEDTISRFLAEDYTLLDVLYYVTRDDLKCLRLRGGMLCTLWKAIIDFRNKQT

[5] = biological target: Mitogen-activated protein kinase 6 (Homo sapiens) (UniProt Q16659)
Sequence of Mitogen-activated protein kinase 6 (Homo sapiens) (Q16659 whole entry): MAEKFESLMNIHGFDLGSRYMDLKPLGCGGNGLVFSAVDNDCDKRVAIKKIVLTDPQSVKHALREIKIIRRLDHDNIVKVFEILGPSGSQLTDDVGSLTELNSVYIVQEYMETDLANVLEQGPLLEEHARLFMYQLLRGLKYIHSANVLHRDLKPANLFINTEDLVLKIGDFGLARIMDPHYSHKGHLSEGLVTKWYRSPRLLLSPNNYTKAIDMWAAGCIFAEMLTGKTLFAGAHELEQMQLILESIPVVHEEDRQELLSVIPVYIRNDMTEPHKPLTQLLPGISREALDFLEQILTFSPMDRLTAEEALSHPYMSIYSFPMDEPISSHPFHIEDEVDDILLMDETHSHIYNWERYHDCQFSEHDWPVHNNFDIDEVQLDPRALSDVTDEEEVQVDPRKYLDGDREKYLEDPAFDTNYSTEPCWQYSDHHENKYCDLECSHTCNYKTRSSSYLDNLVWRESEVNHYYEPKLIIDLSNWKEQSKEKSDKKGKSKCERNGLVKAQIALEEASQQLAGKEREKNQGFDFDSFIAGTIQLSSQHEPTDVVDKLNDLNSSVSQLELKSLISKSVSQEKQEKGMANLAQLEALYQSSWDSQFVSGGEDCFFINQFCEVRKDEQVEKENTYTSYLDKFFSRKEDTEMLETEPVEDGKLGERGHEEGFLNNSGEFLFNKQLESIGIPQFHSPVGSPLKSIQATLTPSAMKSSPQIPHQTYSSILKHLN

[6] = biological target: T3, Serine/threonine-protein kinase Nek2 (Homo sapiens) (UniProt P51955)
T3 sequence (whole entry): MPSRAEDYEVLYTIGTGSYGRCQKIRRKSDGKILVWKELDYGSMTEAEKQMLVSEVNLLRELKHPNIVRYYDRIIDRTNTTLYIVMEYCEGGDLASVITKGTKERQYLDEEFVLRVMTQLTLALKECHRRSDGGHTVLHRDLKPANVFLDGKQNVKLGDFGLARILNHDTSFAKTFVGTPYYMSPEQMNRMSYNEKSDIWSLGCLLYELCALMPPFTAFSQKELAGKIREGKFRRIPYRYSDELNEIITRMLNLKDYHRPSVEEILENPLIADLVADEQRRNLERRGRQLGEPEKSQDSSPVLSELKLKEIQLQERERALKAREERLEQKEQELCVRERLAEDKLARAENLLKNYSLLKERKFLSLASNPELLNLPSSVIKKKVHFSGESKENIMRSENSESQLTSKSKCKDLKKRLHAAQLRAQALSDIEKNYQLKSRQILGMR

[7] = biological target: Serine/threonine-protein kinase PAK 4 (Homo sapiens) (UniProt O96013)
Sequence of Serine/threonine-protein kinase PAK 4 (Homo sapiens) (O96013 whole entry, looked up): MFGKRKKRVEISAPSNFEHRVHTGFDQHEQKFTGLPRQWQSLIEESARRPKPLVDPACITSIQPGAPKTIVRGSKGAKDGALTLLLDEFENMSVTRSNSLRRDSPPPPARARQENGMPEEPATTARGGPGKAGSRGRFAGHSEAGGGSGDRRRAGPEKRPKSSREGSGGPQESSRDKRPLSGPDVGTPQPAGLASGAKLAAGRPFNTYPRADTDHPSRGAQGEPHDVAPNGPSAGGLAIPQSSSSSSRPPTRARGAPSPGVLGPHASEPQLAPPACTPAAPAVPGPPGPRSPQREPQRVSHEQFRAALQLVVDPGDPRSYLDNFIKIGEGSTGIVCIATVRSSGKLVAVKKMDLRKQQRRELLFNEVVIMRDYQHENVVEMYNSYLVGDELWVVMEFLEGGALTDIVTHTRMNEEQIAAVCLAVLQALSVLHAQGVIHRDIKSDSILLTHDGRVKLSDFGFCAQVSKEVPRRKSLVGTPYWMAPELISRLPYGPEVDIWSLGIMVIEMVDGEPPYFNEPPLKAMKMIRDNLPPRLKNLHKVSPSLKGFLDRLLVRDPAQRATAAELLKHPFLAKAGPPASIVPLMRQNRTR

[8] = biological target: Serine/threonine-protein kinase pim-2 (Homo sapiens, UniProt Q9P1W9)
Sequence of Serine/threonine-protein kinase pim-2 (Q9P1W9 whole entry, looked up): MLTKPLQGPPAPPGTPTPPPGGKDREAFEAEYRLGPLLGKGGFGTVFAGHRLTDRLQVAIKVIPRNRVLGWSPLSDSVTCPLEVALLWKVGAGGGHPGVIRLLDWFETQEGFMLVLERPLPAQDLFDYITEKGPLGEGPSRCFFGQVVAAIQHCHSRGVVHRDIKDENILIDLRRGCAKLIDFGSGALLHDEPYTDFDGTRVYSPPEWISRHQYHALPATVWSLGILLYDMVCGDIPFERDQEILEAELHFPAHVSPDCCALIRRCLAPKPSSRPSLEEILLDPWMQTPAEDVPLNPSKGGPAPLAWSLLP

[9] = biological target: Ribosomal protein S6 kinase alpha-3 (Homo sapiens) (UniProt P51812)
Sequence of Ribosomal protein S6 kinase alpha-3 (Homo sapiens) (P51812 whole entry): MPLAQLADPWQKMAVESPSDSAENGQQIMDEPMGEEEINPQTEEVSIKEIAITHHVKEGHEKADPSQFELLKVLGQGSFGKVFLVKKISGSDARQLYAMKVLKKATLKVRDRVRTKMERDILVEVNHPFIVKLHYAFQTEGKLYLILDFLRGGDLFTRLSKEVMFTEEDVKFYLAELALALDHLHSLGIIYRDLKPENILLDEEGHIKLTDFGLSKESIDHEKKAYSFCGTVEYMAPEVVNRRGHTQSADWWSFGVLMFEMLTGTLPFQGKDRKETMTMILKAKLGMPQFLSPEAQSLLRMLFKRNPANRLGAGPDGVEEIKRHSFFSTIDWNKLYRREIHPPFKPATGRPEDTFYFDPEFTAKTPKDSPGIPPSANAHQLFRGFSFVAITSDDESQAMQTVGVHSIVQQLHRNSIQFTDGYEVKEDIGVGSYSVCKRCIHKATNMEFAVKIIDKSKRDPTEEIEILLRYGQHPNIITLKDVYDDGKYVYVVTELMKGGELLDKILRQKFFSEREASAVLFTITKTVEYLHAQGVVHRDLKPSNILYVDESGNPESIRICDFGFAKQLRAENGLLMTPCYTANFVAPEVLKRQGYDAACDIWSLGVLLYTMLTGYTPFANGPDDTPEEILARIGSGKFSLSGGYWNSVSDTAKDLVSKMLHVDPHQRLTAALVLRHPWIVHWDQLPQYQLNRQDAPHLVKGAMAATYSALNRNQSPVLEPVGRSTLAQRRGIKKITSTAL

[10] = biological target: T4, Lymphokine-activated killer T-cell-originated protein kinase (Homo sapiens) (UniProt Q96KB5)
T4 sequence (whole entry): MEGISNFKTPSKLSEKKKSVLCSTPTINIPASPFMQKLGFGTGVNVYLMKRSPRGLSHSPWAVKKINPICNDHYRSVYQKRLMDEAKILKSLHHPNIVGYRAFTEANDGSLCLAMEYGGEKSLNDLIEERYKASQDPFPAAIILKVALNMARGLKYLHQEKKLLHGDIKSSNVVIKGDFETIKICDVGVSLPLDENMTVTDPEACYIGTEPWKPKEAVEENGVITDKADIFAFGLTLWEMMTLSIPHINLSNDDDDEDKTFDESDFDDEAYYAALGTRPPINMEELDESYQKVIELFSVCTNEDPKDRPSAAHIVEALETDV

Sequence of Calcium/calmodulin-dependent protein kinase type 1D (Homo sapiens) (Q8IU85 whole entry, looked up): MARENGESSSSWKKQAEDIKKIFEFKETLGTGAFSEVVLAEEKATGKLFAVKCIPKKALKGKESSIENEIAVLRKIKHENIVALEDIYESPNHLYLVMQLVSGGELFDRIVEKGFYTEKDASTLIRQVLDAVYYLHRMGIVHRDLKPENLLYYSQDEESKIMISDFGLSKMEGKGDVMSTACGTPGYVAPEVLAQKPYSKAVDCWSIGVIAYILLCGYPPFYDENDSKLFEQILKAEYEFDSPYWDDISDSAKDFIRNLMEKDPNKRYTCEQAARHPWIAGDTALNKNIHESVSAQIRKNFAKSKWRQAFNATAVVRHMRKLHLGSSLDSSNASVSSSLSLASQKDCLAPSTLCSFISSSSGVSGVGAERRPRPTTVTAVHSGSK

| SMILES | ΔTm [1] | ΔTm [2] | ΔTm [3] | ΔTm [4] | ΔTm [5] | ΔTm [6] | ΔTm [7] | ΔTm [8] | ΔTm [9] | ΔTm [10] |
| --- | --- | --- | --- | --- | --- | --- | --- | --- | --- | --- |
| N#CC(C#N)=Cc1ccc(O)c(O)c1 [TYRPHOSTIN 23] | 0.2 °C | 0.4 °C | 0.8 °C | 0.1 °C | 0.1 °C | 1.2 °C | -0.1 °C | 1 °C | 0.2 °C | 0.4 °C |
| CN(C)c1ncnc2nc[nH]c12 [DIMETHYLADENINE] | 0 °C | 0.1 °C | 0.7 °C | 2.8 °C | -0.1 °C | 0.8 °C | 0.5 °C | 0.3 °C | 0.6 °C | 0.5 °C |
| Cc1[nH]c(/C=C2\C(=O)Nc3ccc(S(=O)(=O)N(C)c4cccc(Cl)c4)cc32)c(C)c1C(=O)N1CCN(C)CC1 | 0.4 °C | -0.1 °C | 4.2 °C | -0.7 °C | 1.4 °C | 0.1 °C | 1.4 °C | 1 °C | 7.7 °C | 0.1 °C |
| CC(C)(C)n1nc(-c2cccc3ccccc23)c2c(N)ncnc21 | -0.3 °C | -0.1 °C | 0.1 °C | 0.8 °C | 0 °C | -0.2 °C | 1.2 °C | -0.2 °C | 2.4 °C | 0.5 °C |
| COc1cccc(-c2cc(=O)c3ccccc3o2)c1N | -0.1 °C | -0.1 °C | 0.1 °C | -0.1 °C | 0.3 °C | -0.2 °C | 0.5 °C | 0.2 °C | -0.1 °C | 1.2 °C |
| COc1cc(C[C@H]2C(=O)OC[C@@H]2Cc2ccc(OC)c(OC)c2)ccc1O [ARCTIGENIN] | 0.1 °C | -0.5 °C | -0.2 °C | 0.2 °C | 0.2 °C | 1.1 °C | 0.8 °C | 0 °C | -0.2 °C | -0.7 °C |
| O=C1NC(=O)C(c2cn(CCCn3ccnc3)c3ccccc23)=C1Nc1ccccc1 | 0.2 °C | -0.7 °C | 8.4 °C | 0.6 °C | 0.6 °C | 1.2 °C | 0.7 °C | 1.5 °C | 0.5 °C | 0.8 °C |
| O=C1Nc2ccccc2/C1=C/c1cnc[nH]1 | 0.7 °C | 0.7 °C | 7.1 °C | 5 °C | 0.5 °C | 2 °C | 2.2 °C | 1.9 °C | 5.8 °C | 0.1 °C |
| COc1cc2c(cc1OC)-c1n[nH]c(Nc3cccc(F)c3)c1C2 | 0.3 °C | 0.5 °C | 2.9 °C | 4 °C | -0.3 °C | 0.6 °C | 0 °C | 0.2 °C | 2.2 °C | 0.2 °C |
| O=C(O)c1cc(N(Cc2ccccc2O)Cc2cc(O)ccc2O)ccc1O [LAVENDUSTIN A] | 0.1 °C | 0.5 °C | -0.1 °C | 0.2 °C | 0.8 °C | 1.3 °C | 0.1 °C | 1.1 °C | -0.2 °C | 0 °C |
| CC(=O)O/N=C1/C(=C2/C(=O)Nc3cc(Br)ccc32)Nc2ccccc21 [6-BROMOINDIRUBIN-3'-ACETOXIME] | -1.4 °C | 4.6 °C | 9.4 °C | -0.2 °C | 0.3 °C | 1.9 °C | 2.2 °C | -1.4 °C | 2.5 °C | -0.3 °C |
| CC(C)n1cnc2/c(=N/c3cccc(Cl)c3)nc(NCCO)[nH]c21 | 0.7 °C | 1.2 °C | 0.8 °C | 0.4 °C | 0.2 °C | 1.3 °C | 2.9 °C | 0.6 °C | 4.6 °C | -0.1 °C |
| CCCCc1c(-c2ccc(O)cc2)[nH]c2nccnc12 [ALOISINE A] | 1.2 °C | 0.4 °C | 8.3 °C | 0.4 °C | 3 °C | -0.4 °C | 2.6 °C | 4.5 °C | 3 °C | 0.7 °C |
| NC1=N/C(=C2/CCNC(=O)c3[nH]ccc32)C(=O)N1 [DEBROMOHYMENIALDISINE] | 0 °C | 0 °C | 5 °C | 4.6 °C | 0.3 °C | 1.1 °C | 0.9 °C | 2.5 °C | 2.6 °C | -0.4 °C |
| C[C@@H]1C[C@H]2O[C@@H]2/C=C\C=C\C(=O)Cc2c(Cl)c(O)cc(O)c2C(=O)O1 [RADICICOL] | 0 °C | -0.1 °C | -0.3 °C | -0.2 °C | 0.4 °C | 0.2 °C | 1.3 °C | 0.1 °C | 0.2 °C | 0.2 °C |
| Cc1cc(Nc2nc(-c3ccccc3)nc3ccccc23)n[nH]1 | 3.5 °C | 4.7 °C | 8.6 °C | 0.9 °C | 0.2 °C | 3 °C | 5.9 °C | 0.7 °C | 0.8 °C | 0.9 °C |
| N=C(N)NCCNS(=O)(=O)c1cccc2cnccc12 | 0 °C | -0.3 °C | 0.4 °C | 0.1 °C | 0.4 °C | 0.5 °C | -0.1 °C | 0.6 °C | 0.4 °C | 0.6 °C |
